# Read-outs that look alike come from different tables or passages of the source.
# How the values were obtained:
# MCL-1 = target: T1, MCL-1 (Homo sapiens, UniProt Q07820); experiment: Cell free Mcl-1:Bim affinity assay (fluorescence polarization competition); type: binding; conditions: 15 nM MCL-1, 5 nM FITC-Bim tracer, 1 hour at room temperature; Ki calc. from IC50 by Nikolovska-Coleska's equation; read-out: BIM_ Ki
# T1 construct: purchased BPS Bioscience
# Procedure: Cell Free Mcl-1:Bim Affinity Assay (Mcl-1 Bim)
# The binding affinity of each compound was measured via a fluorescence polarization competition assay, in which the compound competes for the same binding site with the ligand, and thus leads to a dose-dependent anisotropy reduction. The tracer ligand utilized was a fluorescein isothiocyanate labelled peptide (FITC-[…]) derived from Bim (GenScript).
# The assay was carried out in black half-area 96-well NBS plate (Corning), containing 15 nM of MCL-1 (BPS Bioscience), 5 nM of FITC-Bim and 3-fold serial diluted test compounds in a total volume of 50 μL of assay buffer (20 mM HEPES, 50 mM NaCl, 0.002% Tween 20, 1 mM TCEP, and 1% DMSO). The reaction plate was incubated for 1 hour at room temperature. The change of anisotropy is measured with an Envision multimode plate reader (PerkinElmer) at emission wavelength 535 nm. Fluorescence polarization was calc. in mP unit and the percentage inhibition was calc. by % inhibition=100×(mPDMSO−mP)/(mPDMSO−mPPC), in which mPDMSO is the DMSO control, and mPPC is the positive control. IC50 values were determined from a 10-point dose response curve by fitting the percent inhibition against compound concentration using the GraphPad Prism software. The inhibition constant Ki was subsequently calc. according to the Nikolovska-Coleska's equation (Anal. Biochem., 2004, 332, 261),
# where [I]50 is the concentration of the free inhibitor at 50% inhibition, [L]50 is the concentration of the free labeled ligand at 50% inhibition, [P]0 is the concentration of the free protein at 0% inhibition, and Kd is the dissociation constant of the protein-ligand complex.
# H929 cells = experiment: Cell viability assay (H929 10 FBS); type: cell-based; conditions: CellTiter-Glo or ATPlite, read-out: H929_10FBS IC50
# Procedure: Cell Viability Assay (H929 10 FBS)
# Dispense 10 μL aliquot of prepared H929 cells (1:1 ratio of cells:Trypan Blue (#1450013, Bio-Rad)) onto cell counting slide (#145-0011, Bio-Rad) and obtain cell density and cell viability using cell counter (TC20, Bio-Rad). Remove appropriate volume of resuspended cells from culture flask to accommodate 4000 cells/well @ 10 μL/well. Transfer H929 cells to 50 mL conical (#430290, Corning). Spin down at 1000 rpm for 5 min using tabletop centrifuge (SPINCHRON 15, Beckman). Discard supernatant and resuspend cell pellet in modified RPMI 1640 (#10-040-CV, Corning) cell culture media containing 10% FBS (F2422-500 ML, Sigma), sodium pyruvate (100 mM) (#25-000-CL, Corning), HEPES buffer (1 M) (#25-060-CL, Corning) and glucose (200 g/L) (A24940-01, Gibco) to a cell density of 400,000 cells/mL. Dispense 10 μL of resuspended H929 cells per well in 384-well small volume TC treated plate (#784080, Greiner Bio-one) using standard cassette (#50950372, Thermo Scientific) on Multi-drop Combi (#5840310, Thermo Scientific) in laminar flow cabinet. Dispense compounds onto plates using digital liquid dispenser (D300E, Tecan). Incubate plates in humidified tissue culture incubator @ 37° C. for 24 hours. Add 10 μL of prepared CellTiTer-Glo® detection buffer (G7570, Promega) or ATPlite 1Step detection reagent (#6016731, Perkin Elmer) to each well of 384-well plate using small tube cassette (#24073295, Thermo Scientific) on Combi multi drop, incubate @ RT for 30-60 min. Read plates with microplate reader (PheraStar, BMG Labtech) using 384 well luminescence mode.
# T1 sequence (Q07820 whole entry): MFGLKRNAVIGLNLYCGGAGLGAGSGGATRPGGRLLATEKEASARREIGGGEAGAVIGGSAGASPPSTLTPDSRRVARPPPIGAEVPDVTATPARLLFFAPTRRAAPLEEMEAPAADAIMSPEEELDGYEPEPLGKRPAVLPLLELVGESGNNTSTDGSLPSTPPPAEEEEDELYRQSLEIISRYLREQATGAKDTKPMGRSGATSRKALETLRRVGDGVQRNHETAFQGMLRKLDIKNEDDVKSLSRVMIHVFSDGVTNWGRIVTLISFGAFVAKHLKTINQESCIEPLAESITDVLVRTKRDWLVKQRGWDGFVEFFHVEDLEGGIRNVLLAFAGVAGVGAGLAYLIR
Ki (MCL-1) [µM],"IC50 (H929 cells; Homo sapiens, NCI-H929, 24 h) [µM]",IC50 (H929 cells; 24 hours) [µM],SMILES
< 0.001,0.1 to 0.5,,"CO[C@H]1/C=C/COC(C)(C)C(=O)N=S(=O)(NC(=O)c2ccccc2)c2ccc3c(c2)N(C[C@@H]2CC[C@H]21)C[C@@]1(CCCc2cc(Cl)ccc21)CO3 (stereo partly drawn) [Example 12, N-[(3R,6R,7S,8E,22S)-7′-Chloro-7-methoxy-12,12-dimethyl-13,15-dioxospiro[11,20-dioxa-15-thia-1,14-diazatetracyclo[14.7.2.03,6.019,24]pentacosa-8,14,16,18,24-pentaene-22,4′-2,3-dihydro-1H-naphthalene]-15-yl]benzamide]"
< 0.001,< 0.1,,"CO[C@H]1/C=C/COC(C)(C)C(=O)N=S(=O)(NC(=O)C2CCOCC2)c2ccc3c(c2)N(C[C@@H]2CC[C@H]21)C[C@@]1(CCCc2cc(Cl)ccc21)CO3 (stereo partly drawn) [Example 11, N-[(3R,6R,7S,8E,22S)-7′-Chloro-7-methoxy-12,12-dimethyl-13,15-dioxospiro[11,20-dioxa-15-thia-1,14-diazatetracyclo[14.7.2.03,6.019,24]pentacosa-8,14,16,18,24-pentaene-22,4′-2,3-dihydro-1H-naphthalene]-15-yl]oxane-4-carboxamide]"
< 0.001,< 0.1,,"CO[C@H]1/C=C/COC(C)(C)C(=O)N=S(=O)(NC(=O)N2CC(N(C)C)C2)c2ccc3c(c2)N(C[C@@H]2CC[C@H]21)C[C@@]1(CCCc2cc(Cl)ccc21)CO3 (stereo partly drawn) [Example 33, N-[(3R,6R,7S,8E,22S)-7′-Chloro-7-methoxy-12,12-dimethyl-13,15-dioxospiro[11,20-dioxa-15-thia-1,14-diazatetracyclo[14.7.2.03,6.019,24]pentacosa-8,14,16,18,24-pentaene-22,4′-2,3-dihydro-1H-naphthalene]-15-yl]-3-(dimethylamino)azetidine-1-carboxamide]"
< 0.001,,< 0.1,COC1C=CCOC(C)(C)C(=O)N=S(=O)(NC(=O)N2CC(O)C2)c2ccc3c(c2)N(CC2CCC21)CC1(CCCc2cc(Cl)ccc21)CO3 (stereo not shown) [29 or 30]
< 0.001,,0.1 to 0.5,COC1CN(C(=O)NS2(=O)=NC(=O)C(C)(C)OCC=CC(OC)C3CCC3CN3CC4(CCCc5cc(Cl)ccc54)COc4ccc2cc43)C1 (stereo not shown) [32 or 31]
